Legend:
Details in all cases: 72 h
[1] = system: Caco-2; assay: relative viability EC50 (midpoint between 100% and the lowest measured viability); higher = less toxic
[2] = system: U2OS; assay: as above
[3] = system: Vero E6; assay: as above
[4] = system: HepG2; assay: as above
[5] = system: Caco-2; assay: drug sensitivity score (DSS) for viability; higher = more toxic; extreme values may be limits of the assay
[6] = system: U2OS; assay: as above
[7] = system: Vero E6; assay: as above
[8] = system: HepG2; assay: as above
[9] = system: Caco-2; assay: cell viability relative to DMSO; higher = less toxic
[10] = system: U2OS; assay: as above
[11] = system: Vero E6; assay: as above
[12] = system: HepG2; assay: as above
[13] = system: Calu-3; assay: relative viability EC50 (midpoint between 100% and the lowest measured viability); higher = less toxic
[14] = system: Calu-3; assay: drug sensitivity score (DSS) for viability; higher = more toxic; extreme values may be limits of the assay
[15] = system: Calu-3; assay: cell viability relative to DMSO; higher = less toxic

Structure (SMILES): COc1ccc(S(=O)(=O)N2CCC[C@H]2C(=O)Nc2cc(C)cc(C)c2)cc1
- relative viability EC50 [1]: > 10 µM
- relative viability EC50 [2]: > 10 µM
- relative viability EC50 [3]: > 10 µM
- relative viability EC50 [4]: > 10 µM
- drug sensitivity score [5]: 0
- drug sensitivity score [6]: 0
- drug sensitivity score [7]: 0
- drug sensitivity score [8]: 0
- cell viability ([9]; 1 nM): 91%
- cell viability ([9]; 10 nM): 93.1%
- cell viability ([9]; 100 nM): 98.1%
- cell viability ([9]; 1000 nM): 102%
- cell viability ([9]; 10000 nM): 90%
- cell viability ([10]; 1 nM): 103%
- cell viability ([10]; 10 nM): 100%
- cell viability ([10]; 100 nM): 98.1%
- cell viability ([10]; 1000 nM): 102%
- cell viability ([10]; 10000 nM): 99.2%
- cell viability ([11]; 1 nM): 102%
- cell viability ([11]; 10 nM): 102%
- cell viability ([11]; 100 nM): 107%
- cell viability ([11]; 1000 nM): 98.4%
- cell viability ([11]; 10000 nM): 99.7%
- cell viability ([12]; 1 nM): 101%
- cell viability ([12]; 10 nM): 99%
- cell viability ([12]; 100 nM): 113%
- cell viability ([12]; 1000 nM): 104%
- cell viability ([12]; 10000 nM): 104%

Structure (SMILES): CCOC(=O)NNc1ccc(N(CC)CC(C)O)nn1 (stereo not given) [cadralazine]
- relative viability EC50 [1]: > 10 µM
- relative viability EC50 [3]: > 10 µM
- relative viability EC50 [4]: > 10 µM
- relative viability EC50 [13]: > 10 µM
- drug sensitivity score [5]: 0
- drug sensitivity score [7]: 0
- drug sensitivity score [8]: 0
- drug sensitivity score [14]: 0
- cell viability ([9]; 1 nM): 110%
- cell viability ([9]; 10 nM): 97.4%
- cell viability ([9]; 100 nM): 100%
- cell viability ([9]; 1000 nM): 102%
- cell viability ([9]; 10000 nM): 102%
- cell viability ([11]; 1 nM): 105%
- cell viability ([11]; 10 nM): 100%
- cell viability ([11]; 100 nM): 94.8%
- cell viability ([11]; 1000 nM): 100%
- cell viability ([11]; 10000 nM): 95.2%
- cell viability ([12]; 1 nM): 95.6%
- cell viability ([12]; 10 nM): 103%
- cell viability ([12]; 100 nM): 97.9%
- cell viability ([12]; 1000 nM): 96.6%
- cell viability ([12]; 10000 nM): 106%
- cell viability ([15]; 1 nM): 104%
- cell viability ([15]; 10 nM): 96.3%
- cell viability ([15]; 100 nM): 91.6%
- cell viability ([15]; 1000 nM): 88.1%
- cell viability ([15]; 10000 nM): 101%

Structure (SMILES): Nc1nc(N)c2nc(-c3ccccc3)c(N)nc2n1 [triamterene]
- relative viability EC50 [1]: > 10 µM
- relative viability EC50 [2]: > 10 µM
- relative viability EC50 [4]: > 10 µM
- relative viability EC50 [13]: > 10 µM
- drug sensitivity score [5]: 0
- drug sensitivity score [6]: 0
- drug sensitivity score [7]: 1.5
- drug sensitivity score [8]: 5.2
- drug sensitivity score [14]: 0
- cell viability ([9]; 1 nM): 104%
- cell viability ([9]; 10 nM): 120%
- cell viability ([9]; 100 nM): 97.8%
- cell viability ([9]; 1000 nM): 106%
- cell viability ([9]; 10000 nM): 98.8%
- cell viability ([10]; 1 nM): 102%
- cell viability ([10]; 10 nM): 101%
- cell viability ([10]; 100 nM): 106%
- cell viability ([10]; 1000 nM): 108%
- cell viability ([10]; 10000 nM): 97.8%
- cell viability ([11]; 1 nM): 97.9%
- cell viability ([11]; 10 nM): 98.2%
- cell viability ([11]; 100 nM): 101%
- cell viability ([11]; 1000 nM): 98.6%
- cell viability ([11]; 10000 nM): 70.4%
- cell viability ([12]; 1 nM): 97.9%
- cell viability ([12]; 10 nM): 83.3%
- cell viability ([12]; 100 nM): 85.9%
- cell viability ([12]; 1000 nM): 88.7%
- cell viability ([12]; 10000 nM): 88.1%
- cell viability ([15]; 1 nM): 103%
- cell viability ([15]; 10 nM): 101%
- cell viability ([15]; 100 nM): 93.6%
- cell viability ([15]; 1000 nM): 97.9%
- cell viability ([15]; 10000 nM): 102%

Structure (SMILES): O=C(CN1CCN(C(=O)c2ccco2)CC1)Nc1cc(C(F)(F)F)ccc1Cl [ML348]
- relative viability EC50 [1]: > 10 µM
- relative viability EC50 [3]: > 10 µM
- relative viability EC50 [4]: > 10 µM
- relative viability EC50 [13]: > 10 µM
- drug sensitivity score [5]: 0
- drug sensitivity score [7]: 0
- drug sensitivity score [8]: 0
- drug sensitivity score [14]: 0
- cell viability ([9]; 1 nM): 96.3%
- cell viability ([9]; 10 nM): 89%
- cell viability ([9]; 100 nM): 97%
- cell viability ([9]; 1000 nM): 96.1%
- cell viability ([9]; 10000 nM): 91.1%
- cell viability ([11]; 1 nM): 98.4%
- cell viability ([11]; 10 nM): 98.8%
- cell viability ([11]; 100 nM): 94%
- cell viability ([11]; 1000 nM): 98.3%
- cell viability ([11]; 10000 nM): 94.6%
- cell viability ([12]; 1 nM): 96.9%
- cell viability ([12]; 10 nM): 98%
- cell viability ([12]; 100 nM): 93.1%
- cell viability ([12]; 1000 nM): 106%
- cell viability ([12]; 10000 nM): 104%
- cell viability ([15]; 1 nM): 118%
- cell viability ([15]; 10 nM): 95.7%
- cell viability ([15]; 100 nM): 102%
- cell viability ([15]; 1000 nM): 104%
- cell viability ([15]; 10000 nM): 95.5%

Structure (SMILES): Cc1cc(C)c2nc(-c3ccccn3)cc(C(=O)Nc3ccc(S(=O)(=O)Nc4onc(C)c4C)cc3)c2c1 [ML193]
- relative viability EC50 [1]: > 10 µM
- relative viability EC50 [2]: > 10 µM
- relative viability EC50 [4]: > 10 µM
- relative viability EC50 [13]: > 10 µM
- drug sensitivity score [5]: 0
- drug sensitivity score [6]: 0
- drug sensitivity score [8]: 0
- drug sensitivity score [14]: 0
- cell viability ([9]; 1 nM): 95.2%
- cell viability ([9]; 10 nM): 90.1%
- cell viability ([9]; 100 nM): 101%
- cell viability ([9]; 1000 nM): 83.7%
- cell viability ([9]; 10000 nM): 114%
- cell viability ([10]; 1 nM): 100%
- cell viability ([10]; 10 nM): 98.7%
- cell viability ([10]; 100 nM): 103%
- cell viability ([10]; 1000 nM): 98%
- cell viability ([10]; 10000 nM): 98.4%
- cell viability ([12]; 1 nM): 89.7%
- cell viability ([12]; 10 nM): 108%
- cell viability ([12]; 100 nM): 100%
- cell viability ([12]; 1000 nM): 97.2%
- cell viability ([12]; 10000 nM): 104%
- cell viability ([15]; 1 nM): 97%
- cell viability ([15]; 10 nM): 93.5%
- cell viability ([15]; 100 nM): 96%
- cell viability ([15]; 1000 nM): 86.3%
- cell viability ([15]; 10000 nM): 94.9%

Structure (SMILES): O=C(O)C1CN(Cc2ccc(-c3nc4cc(Cc5ccccc5F)ccc4s3)c(F)c2)C1 [TC-SP-14]
- relative viability EC50 [1]: > 10 µM
- relative viability EC50 [2]: > 10 µM
- relative viability EC50 [4]: > 10 µM
- relative viability EC50 [13]: > 10 µM
- drug sensitivity score [5]: 0
- drug sensitivity score [6]: 0
- drug sensitivity score [8]: 0
- drug sensitivity score [14]: 0
- cell viability ([9]; 1 nM): 97%
- cell viability ([9]; 10 nM): 81.7%
- cell viability ([9]; 100 nM): 84.2%
- cell viability ([9]; 1000 nM): 99.1%
- cell viability ([9]; 10000 nM): 81.8%
- cell viability ([10]; 1 nM): 99.4%
- cell viability ([10]; 10 nM): 97.9%
- cell viability ([10]; 100 nM): 98.8%
- cell viability ([10]; 1000 nM): 102%
- cell viability ([10]; 10000 nM): 101%
- cell viability ([12]; 1 nM): 109%
- cell viability ([12]; 10 nM): 121%
- cell viability ([12]; 100 nM): 90.3%
- cell viability ([12]; 1000 nM): 119%
- cell viability ([12]; 10000 nM): 90%
- cell viability ([15]; 1 nM): 91.2%
- cell viability ([15]; 10 nM): 90.5%
- cell viability ([15]; 100 nM): 102%
- cell viability ([15]; 1000 nM): 95.1%
- cell viability ([15]; 10000 nM): 107%

Structure (SMILES): COc1cnc(NS(=O)(=O)c2ccc(N)cc2)nc1 [sulfameter]
- relative viability EC50 [1]: > 10 µM
- relative viability EC50 [2]: > 10 µM
- relative viability EC50 [4]: > 10 µM
- relative viability EC50 [13]: > 10 µM
- drug sensitivity score [5]: 0
- drug sensitivity score [6]: 0
- drug sensitivity score [8]: 0
- drug sensitivity score [14]: 0
- cell viability ([9]; 1 nM): 106%
- cell viability ([9]; 10 nM): 103%
- cell viability ([9]; 100 nM): 92.7%
- cell viability ([9]; 1000 nM): 103%
- cell viability ([9]; 10000 nM): 98.8%
- cell viability ([10]; 1 nM): 96.2%
- cell viability ([10]; 10 nM): 101%
- cell viability ([10]; 100 nM): 94.3%
- cell viability ([10]; 1000 nM): 101%
- cell viability ([10]; 10000 nM): 97.2%
- cell viability ([12]; 1 nM): 102%
- cell viability ([12]; 10 nM): 110%
- cell viability ([12]; 100 nM): 97%
- cell viability ([12]; 1000 nM): 99.6%
- cell viability ([12]; 10000 nM): 106%
- cell viability ([15]; 1 nM): 97.2%
- cell viability ([15]; 10 nM): 96.4%
- cell viability ([15]; 100 nM): 99.3%
- cell viability ([15]; 1000 nM): 101%
- cell viability ([15]; 10000 nM): 105%

Structure (SMILES): COc1ccc(-c2nc(C(=O)N3CCN(C)CC3)sc2-c2ccc(OC)cc2)cc1
- relative viability EC50 [1]: > 10 µM
- relative viability EC50 [3]: > 10 µM
- relative viability EC50 [4]: > 10 µM
- relative viability EC50 [13]: > 10 µM
- drug sensitivity score [5]: 0
- drug sensitivity score [7]: 0
- drug sensitivity score [8]: 0
- drug sensitivity score [14]: 0
- cell viability ([9]; 1 nM): 99.2%
- cell viability ([9]; 10 nM): 94.6%
- cell viability ([9]; 100 nM): 108%
- cell viability ([9]; 1000 nM): 102%
- cell viability ([9]; 10000 nM): 102%
- cell viability ([11]; 1 nM): 107%
- cell viability ([11]; 10 nM): 104%
- cell viability ([11]; 100 nM): 102%
- cell viability ([11]; 1000 nM): 103%
- cell viability ([11]; 10000 nM): 95.6%
- cell viability ([12]; 1 nM): 98.7%
- cell viability ([12]; 10 nM): 95.7%
- cell viability ([12]; 100 nM): 104%
- cell viability ([12]; 1000 nM): 107%
- cell viability ([12]; 10000 nM): 98.5%
- cell viability ([15]; 1 nM): 97.5%
- cell viability ([15]; 10 nM): 101%
- cell viability ([15]; 100 nM): 99.7%
- cell viability ([15]; 1000 nM): 109%
- cell viability ([15]; 10000 nM): 106%

Source: the supplement of paper PMC13380429
